The values that follow come from ChEMBL document CHEMBL1144356 (J Med Chem, 2005).

Experiment [1] has as its system Cricetinae gen. sp. Description: Effect at an oral dose of 0.3 mg/kg/day for 14 days on serum triglyceride level of hamster. It is filed as functional, Cricetulus griseus.
Experiment [2] has as its system Canis familiaris. Description: Effect on cholesterol lowering in male Beagle dog at an oral dose of 0.01 mkd for 15 days.
Experiment [3] concerns the target T1, Peroxisome proliferator-activated receptor alpha (Homo sapiens, UniProt Q07869).
T1 sequence (Q07869 whole entry): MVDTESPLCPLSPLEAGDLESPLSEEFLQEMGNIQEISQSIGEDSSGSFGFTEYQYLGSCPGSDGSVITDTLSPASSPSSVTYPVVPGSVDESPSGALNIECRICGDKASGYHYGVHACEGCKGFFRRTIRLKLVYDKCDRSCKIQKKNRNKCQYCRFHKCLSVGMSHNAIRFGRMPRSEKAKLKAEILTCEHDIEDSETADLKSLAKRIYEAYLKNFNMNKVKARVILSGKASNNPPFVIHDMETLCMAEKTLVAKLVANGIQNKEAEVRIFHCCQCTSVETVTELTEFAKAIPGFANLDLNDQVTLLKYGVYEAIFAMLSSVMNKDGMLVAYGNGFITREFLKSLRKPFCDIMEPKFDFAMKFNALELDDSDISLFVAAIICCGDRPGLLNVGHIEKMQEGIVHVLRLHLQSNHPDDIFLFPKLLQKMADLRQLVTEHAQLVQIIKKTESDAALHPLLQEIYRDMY
The experiment can be described thus: Effective concentration against human PPAR-alpha in Gal4 transactivation assay. It is filed as functional.

The target in experiment [4] is T2, Peroxisome proliferator-activated receptor gamma (Homo sapiens, UniProt P37231).
T2 sequence (P37231 whole entry): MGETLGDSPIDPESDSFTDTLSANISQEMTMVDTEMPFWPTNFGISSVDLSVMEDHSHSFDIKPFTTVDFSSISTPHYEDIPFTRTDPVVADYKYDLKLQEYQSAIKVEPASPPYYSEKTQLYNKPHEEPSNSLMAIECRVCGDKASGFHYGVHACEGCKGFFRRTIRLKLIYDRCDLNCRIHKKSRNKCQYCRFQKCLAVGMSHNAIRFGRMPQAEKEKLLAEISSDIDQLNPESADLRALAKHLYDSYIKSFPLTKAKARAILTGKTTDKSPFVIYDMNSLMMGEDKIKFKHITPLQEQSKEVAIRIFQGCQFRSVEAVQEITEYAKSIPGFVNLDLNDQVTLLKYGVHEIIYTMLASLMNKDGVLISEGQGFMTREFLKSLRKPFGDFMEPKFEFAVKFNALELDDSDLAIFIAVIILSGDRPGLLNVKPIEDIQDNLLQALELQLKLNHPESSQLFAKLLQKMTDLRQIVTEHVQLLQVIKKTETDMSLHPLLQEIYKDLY
The experiment can be described thus: In vitro binding affinity for PPAR-gamma.

Experiment [5] concerns Canis familiaris. The experiment can be described thus: Effect on cholesterol lowering in male Beagle dog at an oral dose of 0.1 mkd for 7 days.
The test system of experiment [6] is Canis familiaris. The experiment can be described thus: Effect on cholesterol lowering in male Beagle dog at an oral dose of 0.3 mkd for 10 days.
In experiment [7] the test system is Canis familiaris. The experiment can be described thus: Effect on cholesterol lowering in male Beagle dog at an oral dose of 0.03 mkd for 15 days.
Experiment [8] deals with T2, Peroxisome proliferator-activated receptor gamma. The experiment can be described thus: Effective concentration against human PPAR-gamma in Gal4 transactivation assay; 30% response at 3 uM. It is filed as functional.
Experiment [9] has as its system Canis familiaris. The experiment can be described thus: Effect on cholesterol lowering in male Beagle dog at an oral dose of 0.3 mkd for 15 days with 4 mkd simavastatin.
Experiment [10] concerns Canis familiaris. The experiment can be described thus: Effect on cholesterol lowering in male Beagle dog at an oral dose of 0.1 mkd for 3 days.
In experiment [11] the test system is Canis familiaris. The experiment can be described thus: Effect on cholesterol lowering in male Beagle dog at an oral dose of 0.3 mkd for 3 days with 4 mkd simavastatin.
Experiment [12] relates to Canis familiaris. The experiment can be described thus: Effect on cholesterol lowering in male Beagle dog at an oral dose of 0.3 mkd for 10 days with 4 mkd simavastatin.
Experiment [13] deals with Canis familiaris. Description: Effect on cholesterol lowering in male Beagle dog at an oral dose of 0.3 mkd for 3 days.
The test system of experiment [14] is Canis familiaris. The experiment can be described thus: Effect on cholesterol lowering in male Beagle dog at an oral dose of 0.3 mkd for 7 days.
The subject of experiment [15] is Cricetinae gen. sp. Description: Effect at an oral dose of 0.1 mg/kg/day for 14 days on serum triglyceride level of hamster. It is filed as functional, Cricetulus griseus.
Experiment [16] concerns Canis familiaris. The experiment can be described thus: Effect on cholesterol lowering in male Beagle dog at an oral dose of 0.3 mkd for 15 days.
Experiment [17] relates to Canis familiaris. The experiment can be described thus: Effect on cholesterol lowering in male Beagle dog at an oral dose of 0.03 mkd for 7 days.
Experiment [18] addresses T3, Peroxisome proliferator-activated receptor delta (Homo sapiens, UniProt Q03181).
T3 sequence (Q03181 whole entry): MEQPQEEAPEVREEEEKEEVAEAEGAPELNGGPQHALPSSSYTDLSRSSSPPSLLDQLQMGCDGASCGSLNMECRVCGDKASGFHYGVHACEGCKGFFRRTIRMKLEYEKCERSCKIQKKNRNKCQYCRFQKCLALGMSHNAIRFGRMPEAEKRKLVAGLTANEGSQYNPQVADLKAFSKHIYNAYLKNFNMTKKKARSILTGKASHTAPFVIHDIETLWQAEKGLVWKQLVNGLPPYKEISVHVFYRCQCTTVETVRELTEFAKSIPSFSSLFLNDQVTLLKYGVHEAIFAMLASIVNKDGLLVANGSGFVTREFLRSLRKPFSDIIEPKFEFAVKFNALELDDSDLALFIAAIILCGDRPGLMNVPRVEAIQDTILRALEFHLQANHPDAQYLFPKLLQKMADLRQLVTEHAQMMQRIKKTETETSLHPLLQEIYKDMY
The experiment can be described thus: In vitro binding affinity for PPAR-delta.

The test system of experiment [19] is Canis familiaris. Description: Effect on cholesterol lowering in male Beagle dog at an oral dose of 0.03 mkd for 3 days.
For experiment [20], the system named is Canis familiaris. Description: Effect on cholesterol lowering in male Beagle dog at an oral dose of 0.3 mkd for 7 days with 4 mkd simavastatin.
Experiment [21] has as its system Canis familiaris. Description: Effect on cholesterol lowering in male Beagle dog at an oral dose of 0.1 mkd for 10 days.
Experiment [22] has as its system Cricetinae gen. sp. The experiment can be described thus: Effect at an oral dose of 1 mg/kg/day for 14 days on serum cholesterol level of hamster. It is filed as functional, Cricetulus griseus.
Experiment [23] concerns Canis familiaris. The experiment can be described thus: Effect on cholesterol lowering in male Beagle dog at an oral dose of 0.1 mkd for 15 days.

For orientation: EC50 means the concentration that produces a half-maximal response. As usually defined, the IC50 is the point on the concentration scale where inhibition reaches its midpoint. A lower IC50 goes with higher potency. For `CC[C@@]1(C(=O)O)Cc2cc(OCCCOc3ccc(OC(F)(F)F)cc3Cl)ccc2O1`, the TG is given as -31.85% with Cricetinae gen. sp. [1] and -11.78% in the experiment on Cricetinae gen. sp. [15]. In addition, the TC in the experiment on Canis familiaris [2] is -21%; with Canis familiaris [5], -18%; with Canis familiaris [6] it was -20.5%; with Canis familiaris [7], -24.3%; in the experiment on Canis familiaris [9] it was -39.7%; with Canis familiaris [10], -7.5%. The TC with Canis familiaris [11] is on record as -14.2%; with Canis familiaris [12], -36.9%; in the experiment on Canis familiaris [13], -10.1%; in the experiment on Canis familiaris [14] it was -17.4%; in the experiment on Canis familiaris [16] it was -24.2%; in the experiment on Canis familiaris [17], -11.2%. Moreover, the TC in the experiment with Canis familiaris [19] is listed as -6.5%; in the experiment with Canis familiaris [20] it was -27.8%; in the experiment with Canis familiaris [21], -22.1%; in the experiment with Cricetinae gen. sp. [22], -42%; with Canis familiaris [23] it was -22.1%. Besides, the 50% effective concentration (EC50) in [3] was 0.002 µM; in [8] it was more than 3 µM. The IC50 in experiment [4] and in experiment [18] was more than 15 µM each time.
